Molecules are shown by their SMILES.

Results on eleven molecules are retold here after patent US4996227A, “3-(heteroarylalkyene)- and 3-(arylalkylene)-2,4(3H,5H)-heterocyclic diones as cancer chemotherapy drugs” (priority 1989, dated 1991).

Holding throughout (assay type): cell-based
One test concerns human tumor H5318 OVARY. As to the kind of experiment: Human Tumor Stem Cell Assay, colony growth after one hour exposure. To be noted: 1 h. An excerpt:
(§1) The in vitro Human Tumor Stem Cell Assay procedure described as follows has several advantages for testing the effectiveness of chemotherapy drugs such as the 3-(heteroarylalkylene)-2,4(3H,5H)-furandiones. The first advantage is that fresh tumor cells from a variety of tumor types were used rather than a small number of cell lines which have undergone severe selection pressures as they are passed in vitro. The second advantage is that only the anchorage-independent tumor cells will form colonies in soft agar so that any non-malignant cells present in the sample will not form colonies. Perhaps the most important advantage, however, is the emphasis on cells which have the ability to form colonies. These cells, which are generally called stem cells, usually comprise only a small percentage of all tumor cells. They are thought to be the most important cells for growth and distant spread of a tumor. In particular, these cells have the potential to leave the primary tumor and form new tumors at distant sites (called metastases). It is the effectiveness against these very important stem cells that the Human Tumor Stem Cell Assay measures.
(§2) One of the 3-(heteroarylalkylene)-2,4(3H,5H)-furandione compounds, 3-[(5-methyl-2-thienyl) methylene]-2,4(3H,5H)-furandione was evaluated against a series of 10 human tumors in the in vitro Human Tumor Cell Assay, along with conventional and standard chemotherapy agents.
(§3) In the procedure, a single cell suspension was prepared from tumors excised from patients during therapeutic or diagnostic surgical procedures. The human tumor cells were exposed to known anticancer drugs or to [(5-methyl-2-thienyl)methylene]-2,4 (3H, 5H)-furandione at a low (0.2 mcg/ml) or a high (1.0 mcg/ml) concentration for one hour. […] The suspension was washed with tissue culture medium to remove the drug.
(§4) The suspension was then cultured in a double soft agar suspension. Control cells which had been treated identically, except for exposure to the drugs, were also cultured. After one to two weeks, both the tumor cells and the control cells formed colonies in the soft agar which were enumerated under a microscope. The number of colonies grown from the drug-treated cells was compared to the number of colonies grown from the control cells, and the percentage growth after exposure to the drug was calculated.
(§5) The results are illustrated in Table 1, wherein the various numbers indicate the percentage of growth. For example, a small number like 6 means that the number of colonies is only 6% of the number without addition of the compound. On the other hand, a large number like 120 means that the number of colonies is 20% greater with the compound than without.
(§6) Of the nine tumors for which the higher concentration (1.0 mcg/ml) of the furandione was used, five gave inhibition of colony growth corresponding to borderline sensitive (30-50% growth) and four gave inhibition corresponding to sensitivity (0-30% growth). Clinical drugs are normally tested at 10% of their peak plasma concentration. For the standard chemotherapy drugs shown in Table 1, the low concentration (LO) corresponds to this 10% level, and the high concentration (HI) is at 50% of the peak plasma concentration. Of the same nine tumors, only two would have been rated as sensitive or borderline sensitive to any of the other clinical drugs tested.

The subject of another test is human tumor H5331 OVARY. The test is described as above. To be noted: 1 h.
Excerpt: as §1, §2, §3, §4, §5, §6

The next test concerns human tumor H5349 BREAST. Described as above. To be noted: 1 h.
Excerpt: as §1, §2, §3, §4, §5, §6

Test [1] relates to human tumor H5325 SARCOMA. The description is as above. To be noted: 1 h.
Excerpt: as §1, §2, §3, §4, §5, §6

In a further test the test system is human tumor H5330 THYMUS. The test is described as above. To be noted: 1 h.
Excerpt: as §1, §2, §3, §4, §5, §6

For another test, the system named is human tumor H5319 BREAST. Described as above. As to conditions: 1 h.
Excerpt: as §1, §2, §3, §4, §5, §6

The test system of test [2] is human tumor H5322 STOMACH. Described as above. To be noted: 1 h.
Excerpt: as §1, §2, §3, §4, §5, §6

Another test deals with human tumor H5315 BREAST. Described as above. To be noted: LO: furandione 0.2 mcg/ml; standard drugs 10% of peak plasma concentration; 1 h.
Excerpt: as §1, §2, §3, §4, §5, §6

The subject of the next test is human tumor H5340 **. Described as above. As to conditions: 1 h.
Excerpt: as §1, §2, §3, §4, §5, §6

Test [3] deals with K562 cells (human chronic granulocytic leukemia). As to the kind of experiment: K562 human leukemia cell suspension culture, cell concentration. To be noted: 1 ug/ml. Here is the method: In this example, 1 mcg/ml of 3[[5-methyl-2-thienyl]methylene]2, 4 (3H, 5H) furandione was compared to 1 mcg/ml of 3[[3-methyl-2-thienyl]methylene]2, 4 (3H, 5H) furandione.
A conventionally available cell line (K562) derived from human chronic granulocytic leukemia was employed in an in vitro procedure. The leukemia cell line was cultured in a suspension of RPMI 1640 plus 10% fetal calf serum. All initial cell concentrations for the cultures were 0.65 times 10^5 cells/ml. Four separate suspension cultures were employed with the first suspension culture having no additions. The second suspension culture included 100 microliters of the solvent DMSO per 10 ml of culture (control). The third culture contained 1 ug/ml of 3[[5-methyl-2 thienyl]methylene]-2, 4 (3H, 5H) furandione and the fourth culture contained 1 ug/ml of 3[[3-methyl-2-thienyl]methylene]-2, 4 (3H, 5H) furandione. The cell concentration of each of the four cultures was determined. After three days and again after five days.

For another test, the system named is human tumor H5337 COLON. As to the kind of experiment: Human Tumor Stem Cell Assay, colony growth after one hour exposure. To be noted: 1 h.
Excerpt: as §1, §2, §3, §4, §5, §6

[4] abbreviates: HI: furandione 1.0 mcg/ml, standard drugs 50% of peak plasma concentration.
[5] abbreviates: LO: furandione 0.2 mcg/ml, standard drugs 10% of peak plasma concentration.

With `COc1cccc2c1C(=O)c1c(O)c3c(c(O)c1C2=O)C[C@@](O)(C(=O)CO)C[C@@H]3O[C@H]1C[C@H](N)[C@H](O)[C@H](C)O1` [ADR, ADRIAMYCIN], the “percentage of growth (colonies vs control)” value (“percentage of growth” for short) is on record as 60% in the test on human tumor H5318 OVARY (setting [4]); 76% in the test with human tumor H5318 OVARY (setting [5]); 105% in the test on human tumor H5331 OVARY (setting [4]); 82% with human tumor H5349 BREAST (setting [4]); 11% in test [1] (setting [4]); 22% in test [1] (setting [5]). Besides, the “percentage of growth” value in the test with human tumor H5330 THYMUS (setting [4]) stood at 98%; in the test on human tumor H5319 BREAST (setting [4]), 100%; in test [2] (setting [4]), 65%; in [2] (setting [5]), 55%; in the test on human tumor H5315 BREAST, 75%.

Regarding `CO[C@@]12[C@H](COC(N)=O)C3=C(C(=O)C(C)=C(N)C3=O)N1C[C@@H]1N[C@@H]12` [MTC, MITOMYCIN C], the “percentage of growth” value is 90% in the test with human tumor H5318 OVARY (setting [4]); 102% with human tumor H5331 OVARY (setting [4]); 90% in the test with human tumor H5330 THYMUS (setting [4]); 72% in the test with human tumor H5319 BREAST (setting [4]); 69% in test [2] (setting [4]); 59% in the test on human tumor H5315 BREAST.

`Nc1nc(=S)c2[nH]cnc2[nH]1` [Compound 6TG, 6THOQUANINE]: the “percentage of growth” value with human tumor H5340 ** (setting [4]) is given as 50%; with human tumor H5340 ** (setting [5]), 75%; in test [1] (setting [4]) it was 69%; in test [2] (setting [4]), 122%.

As for `Cc1ccsc1C=C1C(=O)COC1=O` [3 methyl, 3[[3-methyl-2-thienyl]methylene]-2, 4 (3H, 5H) furandione], in test [3], the “effect on leukemia culture” value is recorded as “also shows a decrease in the leukemia cell concentration culture, but the decrease is not as great as with the other compound”. Besides, the “Cell Conc.” value in test [3] (3 Days) stood at 50000 mL⁻¹; in test [3] (5 Days), 150000 mL⁻¹. Besides, the “cell concentration vs 5-methyl analog” value in test [3] (after five days) is given as “slightly higher cell concentration than the 5-methyl analog”.

Turning to `CC[C@]1(O)C[C@H]2CN(CCc3c([nH]c4ccccc34)[C@@](C(=O)OC)(c3cc4c(cc3OC)N(C=O)[C@H]3[C@@](O)(C(=O)OC)[C@H](OC(C)=O)[C@]5(CC)C=CCN6CC[C@]43[C@@H]65)C2)C1` [VCR, VINCRISTINE], the “percentage of growth” value in the test on human tumor H5340 ** (setting [4]) is on record as 113%.

As to `CC[C@]1(O)C[C@@H]2CN(CCc3c([nH]c4ccccc34)[C@@](C(=O)OC)(c3cc4c(cc3OC)N(C)[C@H]3[C@@](O)(C(=O)OC)[C@H](OC(C)=O)[C@]5(CC)C=CCN6CC[C@]43[C@@H]65)C2)C1` [VBL, VINBLASTINE], the “percentage of growth” value is reported as 60% in the test on human tumor H5318 OVARY (setting [4]); 39% in the test with human tumor H5318 OVARY (setting [5]); 67% with human tumor H5337 COLON (setting [4]); 60% with human tumor H5337 COLON (setting [5]); 45% in the test with human tumor H5331 OVARY (setting [4]); 115% with human tumor H5331 OVARY (setting [5]). Further, the “percentage of growth” value with human tumor H5340 ** (setting [4]) was 44%; in the test with human tumor H5340 ** (setting [5]), 79%; in the test on human tumor H5349 BREAST (setting [4]), 65%; in the test with human tumor H5349 BREAST (setting [5]) it was 70%; in test [1] (setting [4]), 8%; in test [1] (setting [5]), 9%. Moreover, the “percentage of growth” value in the test with human tumor H5319 BREAST (setting [4]) is 6%; in the test with human tumor H5319 BREAST (setting [5]), 5%; in [2] (setting [4]), 35%; in test [2] (setting [5]), 40%; with human tumor H5315 BREAST it was 50%.

`O=NN(CCCl)C(=O)NCCCl` [BCNU, BISCHLORETHYLNITROSOUREA]: the “percentage of growth” value in the test on human tumor H5318 OVARY (setting [4]) is 93%; in the test with human tumor H5337 COLON (setting [4]) it was 88%; in the test on human tumor H5331 OVARY (setting [4]) it was 111%; in the test with human tumor H5330 THYMUS (setting [4]), 74%; with human tumor H5319 BREAST (setting [4]), 122%; in the test on human tumor H5315 BREAST, 108%.

As to `CCOC(=O)NC1=C(N2CC2)C(=O)C(NC(=O)OCC)=C(N2CC2)C1=O` [AZO, AZIRIDIMYLBENYOQUINONE], the “percentage of growth” value with human tumor H5340 ** (setting [4]) turned out to be 107%.

Regarding `N.N.[Cl][Pt][Cl]` [CPDD, CISPLATIN], the “percentage of growth” value in the test on human tumor H5318 OVARY (setting [4]) was 38%; in the test on human tumor H5318 OVARY (setting [5]) it was 109%; in the test with human tumor H5337 COLON (setting [4]), 41%; in the test with human tumor H5337 COLON (setting [5]) it was 98%; in the test on human tumor H5331 OVARY (setting [4]), 69%; with human tumor H5331 OVARY (setting [5]) it was 87%. Further, the “percentage of growth” value in the test with human tumor H5340 ** (setting [4]) is recorded as 125%; in the test with human tumor H5349 BREAST (setting [4]) it was 54%; in the test with human tumor H5349 BREAST (setting [5]), 48%; in test [1] (setting [5]) it was 62%; in the test with human tumor H5330 THYMUS (setting [4]), 75%; in test [2] (setting [4]), 56%. In [2] (setting [5]), the “percentage of growth” value worked out at 63%.

As to `O=c1[nH]cc(F)c(=O)[nH]1` [Compound 5FU, 5FLUORACIL], the “percentage of growth” value in the test on human tumor H5337 COLON (setting [5]) was 62%; in the test with human tumor H5331 OVARY (setting [4]), 51%; with human tumor H5331 OVARY (setting [5]), 94%; in the test with human tumor H5349 BREAST (setting [4]) it was 117%; in test [1] (setting [4]), 83%; in the test on human tumor H5319 BREAST (setting [4]), 111%. For the same molecule, in [2] (setting [4]), the “percentage of growth” value stood at 79%.

Turning to `N[C@@H](Cc1ccc(N(CCCl)CCCl)cc1)C(=O)O` [MPL, MELPHALAN], the “percentage of growth” value with human tumor H5337 COLON (setting [4]) turned out to be 58%; in the test with human tumor H5337 COLON (setting [5]), 76%; in the test with human tumor H5331 OVARY (setting [4]) it was 76%; in the test with human tumor H5349 BREAST (setting [4]), 65%; in the test with human tumor H5349 BREAST (setting [5]), 63%; in test [1] (setting [4]), 12%. The “percentage of growth” value with human tumor H5330 THYMUS (setting [4]) is 92%; in the test on human tumor H5330 THYMUS (setting [5]), 31%; with human tumor H5319 BREAST (setting [4]), 85%; in test [2] (setting [4]), 61%; in test [2] (setting [5]), 54%.
